In ChEMBL document CHEMBL5154647, “Discovery of seneciobipyrrolidine derivatives for the amelioration of glucose homeostasis disorders through 4E-BP1/Akt/AMPK signaling activation” (Eur J Med Chem, 2022):

Legend:
Mus musculus [1] = experiment: Antidiabetic activity in db/db mouse assessed as reduction in random blood glucose level at 300 mg/kg, po bid measured up to 21 days; type: functional; design: scale not given: the % may be the effect or the level left; conditions: time <= 21 day
Mus musculus [2] = experiment: Antidiabetic activity in db/db mouse assessed as reduction in fasting blood glucose level at 300 mg/kg, po bid measured up to 21 days; type: functional; design: scale not given: the % may be the effect or the level left; conditions: time <= 21 day
Mus musculus [3] = experiment: Antidiabetic activity in db/db mouse assessed as reduction in blood glucose level at 300 mg/kg, po bid measured after 6 hrs; type: functional; design: scale not given: the % may be the effect or the level left
[4] = Toxicity in db/db mouse assessed as increase in body weight at 300 mg/kg, po administered for 21 days; type: organism-based; conditions: in vivo, 504 h, time 21 day
[5] = Toxicity in db/db mouse assessed as reduction in triglyceride at 300 mg/kg, po administered for 21 days; type: organism-based; conditions: in vivo, 504 h, time 21 day
[6] = Toxicity in db/db mouse assessed as reduction in total cholesterol at 300 mg/kg, po administered for 21 days; type: organism-based; conditions: in vivo, 504 h, time 21 day
[7] = Toxicity in db/db mouse liver assessed as reduction of fat accumulation in liver at 300 mg/kg, po bid administered for 21 days by H and E staining based microscopic analysis; type: organism-based; conditions: in vivo, 504 h, time 21 day
[8] = Toxicity in db/db mouse assessed as effect on muscle tissue morphology at 300 mg/kg, po bid administered for 21 days by H and E staining based microscopic analysis; type: organism-based; conditions: in vivo, 504 h, time 21 day
[9] = Toxicity in db/db mouse assessed as effect on pancreas morphology at 300 mg/kg, po bid administered for 21 days by H and E staining based microscopic analysis; type: organism-based; conditions: in vivo, 504 h, time 21 day

`CN(C)C(=N)NC(=N)N` [METFORMIN] showed an Activity (Mus musculus [1]) of 40.3%, an Activity (Mus musculus [2]) of 26.6% and an Activity (Mus musculus [3]) of 49.7%. The Activity [4] was “Non-Toxic”, the Activity [5] was “Toxic” and the Activity [6] was “Toxic”. The Activity [7] was “Toxic”, the Activity [8] was “Non-Toxic” and the Activity [9] was “Non-Toxic”.
